Reference: US6579856B2, “Inhibition of stress activated protein kinase (SAPK) pathway and sensitization of cells to cancer therapies” (priority 1997, dated 2003)
Where two headings read alike, the source gives them in different places.

Key:
Format in all cases: cell-based
[1] = tested on: T98G cells; test: PCR-stop assay of cisplatin-DNA adduct formation and repair
Description: The PCR-stop assay was used to quantitate cisplatin-DNA adduct formation and subsequent repair (Horton et al., Nucl. Acids. Res. 23:3810-3815 (1995), which is incorporated herein by reference). The assay is based on the observation that the efficiency of amplification of cisplatin-treated DNA is inversely proportional to the degree of platination. […] DNA was amplified quantitatively to produce a 2.7 kb product of the hypoxanthine phosphoribosyl transferase (HPRT) gene and a 0.15 kb nested fragment of the HPRT gene using ^32P-end labeled primers: 5′-[…]-3′(5′ primer; SEQ ID NO: 3) and 5′-[…]-3′ (3′ primer; SEQ ID NO: 4), for the 2.7 kb product; 5′-[…]-3′(5′ nested primer; SEQ ID NO: 5) and the above 3′ primer (SEQ ID NO: 4) for the 0.15 kb product. The 0.15 kb product contains undetectable levels of DNA damage under the present conditions and serves as an internal PCR control and as the basis for normalization of the amount of amplification of the 2.7 kb product. The number of lesions per 2.7 kb product was calculated as […] (cpm damaged DNA/cpm undamaged DNA).
As a control, […], which inhibits DNA repair by inhibiting ADP-ribosylation, was added with cisplatin.

[2] = tested on: SAPK (JNK); test: SAPK (JNK) assay in T98G cells; conditions: for increase in SAPK (JNK) activity: T98G cells incubated with 250, 500 or 1000 μM for 1 hr
Experimental: T98G glioblastoma cells were maintained in Dulbecco's modified minimal medium containing 5% fetal calf serum. SAPK (JNK) assays were performed as described by Hibi et al. (supra, 1993). c-jun and dn-jun expression were quantitated using the methods and antibodies described by Grover-Bardwick et al. (Carcinogenesis 15:1667-1674 (1994), which is incorporated herein by reference).
Cisplatin, but not transplatin, forms covalent crosslinks between adjacent guanine or guanine-adenine residues. […] As a control, UV-C irradiation was performed and similarly produced a dose-dependent increase in SAPK activity.

[3] = tested on: T98G glioblastoma cells; test: Cell viability (MTS method), T98G cells; conditions: for IC50: 1 hr exposure, viability 5 days later, read-out: IC-50 for cisplatin
Experimental: (§1) Cell viability was determined using the MTS method (Promega Corp.; Madison Wis.), measuring the […] of the formazan product 1 hr after adding the MTS (Gjerset et al., Mol. Carcin. 14:275-285 (1995), which is incorporated herein by reference). Cells were seeded into 96 well plates. After 24 hr, various concentrations of cisplatin or transplatin was added and incubation was continued for 1 hr. Medium was then removed and replaced with fresh medium and cell viability was determined 5 days later. Experiments were performed in quadruplicate; cell viability is expressed as the ratio of the viable cells following treatment to viable untreated cells.
The IC-50 for cisplatin was determined using the T98G cells that express dn-jun, control T98G cells and T98G cells stably transfected with the corresponding empty vector. […] In comparison, expression of dn-jun in T98G cells decreased the IC-50 to 21 μM, which represents a 7-fold increase in sensitivity.

[4] = tested on: PC3 prostate carcinoma cells; test: Cell viability, PC3 cells; conditions: for IC50: read-out: IC-50 (cisplatin)
Experimental: as §1
PC3 prostate carcinoma cells were genetically modified to express dn-jun or a second dominant negative c-jun, Tam-67, both of which were under control of the metallothionein promoter (Brown et al., Oncogene 9:791-799 (1994), which is incorporated herein by reference).

[5] = tested on: U87 human glioblastoma cells; test: Cell viability, U87 cells; conditions: U87 cells expressing dn-jun vs parental U87 cells
Experimental: as §1
(§2) In other experiments, U87 human glioblastoma cells and MCF-7 breast cancer cells were stably transfected with the vector expressing dn-jun and clonal lines were isolated.

[6] = tested on: AP-1; test: Basal AP-1 activity in dn-jun transfected T98G cells; conditions: T98G cells stably expressing dn-jun
Description: (§3) T98G cells were stably transfected with a cDNA encoding the dn-jun (Smeal et al., supra, 1991; Smeal et al., supra, 1992) and clonal lines were obtained. Expression of dn-jun had no effect on basal AP-1 activity or on the enzyme activity of SAPK. In contrast, dn-jun expression inhibited phosphorylation-dependent activation of transcription.

[7] = tested on: phosphorylation-dependent activation of transcription; test: Phosphorylation-dependent activation of transcription in dn-jun transfected T98G cells; conditions: T98G cells stably expressing dn-jun
Description: as §3

[8] = tested on: MCF-7 breast cancer cells; test: Cell viability, MCF-7 cells; conditions: MCF-7 cells expressing dn-jun vs parental cells
Experimental: as §1, §2

[9] = ABZ added with cisplatin, 6 hr recovery period

Molecule: Nc1ccc(-c2ccc(N)cc2N)cc1 [ABZ, 2-aminobenzidine]
- DNA repair [1, 9]: no repair was observed
- level of DNA damage [1, 9]: substantially increased

Molecule: N.N.[Cl][Pt][Cl] [cisplatin]
- increase in SAPK (JNK) activity [2]: up to 10 fold
- DNA damage ([1]; DNA isolated immediately after 1 hr treatment with 0, 100 or 200 μM): increasing levels of DNA damage
- IC50 ([3]; T98G cells expressing dn-jun): 21 µM
- IC50 ([3]; control (untransfected) T98G cells): 147 µM
- IC50 ([4]; PC3 cells expressing dn-jun): 18 µM
- IC50 ([4]; control PC3 cells): 109 µM

Molecule: N.N.[Cl][Pt+2][Cl] [transplatin]
- increase in SAPK (JNK) activity [2]: no effect was observed

B1: dn-jun: dominant negative mutant of c-jun containing alanine-63 and alanine-73 substitutions; cannot be phosphorylated by SAPK (protein, UniProt P05412 1-331, looked up, variant S63A S73A)
Transcription factor Jun: MTAKMETTFYDDALNASFLPSESGPYGYSNPKILKQSMTLNLADPVGSLKPHLRAKNSDLLTAPDVGLLKLAAPELERLIIQSSNGHITTTPTPTQFLCPKNVTDEQEGFAEGFVRALAELHSQNTLPSVTSAAQPVNGAGMVAPAVASVAGGSGSGGFSASLHSEPPVYANLSNFNPGALSSGGGAPSYGAAGLAFPAQPQQQQQPPHHLPQQMPVQHPRLQALKEEPQTVPEMPGETPPLSPIDMESQERIKAERKRMRNRIAASKCRKRKLERIARLEEKVKTLKAQNSELASTANMLREQVAQLKQKVMNHVNSGCQLMLTQQLQTF
- enzyme activity of SAPK ([2]; T98G cells stably expressing dn-jun): no effect
- increased sensitivity to cisplatin [5]: 2.5 fold
- basal AP-1 activity [6]: no effect
- phosphorylation-dependent activation of transcription [7]: inhibited
- increased sensitivity to cisplatin ([4]; PC3 cells expressing dn-jun vs control cells): greater than 7 fold
- increased sensitivity to cisplatin ([4]; PC3 cells expressing dn-jun vs vector control cells): greater than 9 fold
- increased sensitivity to cisplatin [8]: 3 fold

B2: c-jun: c-jun transcription factor, the SAPK substrate, with increased expression in T98G cells (protein, UniProt P05412 1-331, looked up)
Transcription factor Jun: MTAKMETTFYDDALNASFLPSESGPYGYSNPKILKQSMTLNLADPVGSLKPHLRAKNSDLLTSPDVGLLKLASPELERLIIQSSNGHITTTPTPTQFLCPKNVTDEQEGFAEGFVRALAELHSQNTLPSVTSAAQPVNGAGMVAPAVASVAGGSGSGGFSASLHSEPPVYANLSNFNPGALSSGGGAPSYGAAGLAFPAQPQQQQQPPHHLPQQMPVQHPRLQALKEEPQTVPEMPGETPPLSPIDMESQERIKAERKRMRNRIAASKCRKRKLERIARLEEKVKTLKAQNSELASTANMLREQVAQLKQKVMNHVNSGCQLMLTQQLQTF
- viability of cells to cisplatin exposure ([3]; increased expression of c-jun in T98G cells): somewhat increased
